Data: patent publication US10517889B2, “Modulators of SMAD7 expression” (Ionis Pharmaceuticals, Inc., priority 2017, dated 2019)

What was measured:
[1] = Oligonucleotide concentration in liver and colon by LC-MS/MS after subcutaneous administration in CD-1 mice (Example 6); assay type: in vivo; details: 50 mg/kg subcutaneously twice a week for 7 weeks, 48 hours after the last dose
Protocol: Groups of 8-9 week old male CD-1 mice were injected subcutaneously twice a week for 7 weeks with 50 mg/kg of Ionis oligonucleotides (100 mg/kg/week dose). Each group contained 4 mice. One group of male CD-1 mice was injected subcutaneously twice a week for 7 weeks with PBS. Plasma was collected for analysis on day 28.
Oligonucleotide concentrations in the liver and colon were analyzed using LC-MS/MS method.

[2] = Blood chemistry markers after oral gavage in CD-1 mice (Example 7); assay type: in vivo; details: 500 mg/kg oral gavage once daily for 4 weeks, day 30
Protocol: The objective of this study was to evaluate the tolerability and pharmacodynamics of select Ionis human SMAD7 antisense oligonucleotides in CD-1 mice following 4 weeks of treatment. The mice were administered oligonucleotides by oral gavage.
(§1) Groups of 7-8 week old male CD-1 mice were given an oral gavage dose once daily for 4 weeks of 500 mg/kg of Ionis SMAD7 oligonucleotides. Each group contained 8 mice. One group of male CD-1 mice was administered saline by oral gavage daily.
Levels of transaminases, albumin, and BUN were measured using a Toshiba 200FR NEO chemistry analyzer (Toshiba Co., Japan).

[3] = Hematology assays after oral gavage in CD-1 mice (Example 7); assay type: in vivo; set-up: RBC: unit not given here; details: 500 mg/kg oral gavage once daily for 4 weeks
Protocol: as §1
Blood obtained from all mouse groups was measured by an ADVIA2120i hematology analyzer (Siemens, USA) for measurements of the various blood cells, as well as other hematology markers. None of the Ionis SMAD7 oligonucleotides caused changes in the levels of any of the hematology markers outside the expected range for antisense oligonucleotides.

[4] = Hematology assays after subcutaneous administration in beagle dogs (Example 8); assay type: in vivo; details: 30 mg/kg subcutaneous days 1, 3, 5, 8, 15, 22, 29
Protocol: (§2) There were 4 animals per group.
Blood samples were collected from the cephalic vein or saphenous vein of each animal. About 0.5 mL of blood samples was put into tubes containing the potassium salt of EDTA. Blood obtained from all dog groups was measured using an ADVIA2120i hematology analyzer for measurements of the various blood cells, as well as other hematology markers.

[5] = Oligonucleotide concentration in tissues by LC-MS/MS after subcutaneous administration in beagle dogs (Example 8); assay type: in vivo; details: 30 mg/kg subcutaneous, 48 hours after the last dose
Protocol: as §2
Oligonucleotide concentrations of both ION 830025 and ION 798781 were detected in various tissues by LC-MS/MS analysis. The results are presented below, expressed as μg/g tissue. The data was collected 48 hours after the last dose.

[6] = tested on: dog SMAD7 mRNA; assay: Pharmacology: dog SMAD7 mRNA expression in liver, kidney, duodenum, ileum and colon after subcutaneous administration in beagle dogs (Example 8); assay type: in vivo; details: 30 mg/kg subcutaneous, necropsy, normalized to HPRT1
Protocol: as §2
The pharmacological activity of the Ionis oligonucleotides in dogs was assessed by measuring dog SMAD7 mRNA expression in liver, kidney, duodenum, ileum, and colon at necropsy. All the human ASOs used are complementary to dog SMAD7 mRNA.
Tissue samples from all dogs were analyzed for SMAD7 mRNA expression using the primer probe set RTS34649 (forward sequence […], designated SEQ ID NO: 2740; reverse sequence […], designated SEQ ID NO: 2741; probe sequence […], designated SEQ ID NO: 2742), which was normalized to mRNA levels of the housekeeping gene, HPRT1. One-way ANOVA with Dunnet's comparison test was used for statistical analysis.

[7] = tested on: human peripheral blood mononuclear cells (PBMCs); assay: Human PBMC activation assay, cytokine levels (IL-10, IL-6, MCP-1, TNF-α) in supernatant after 24 hours (Example 9); details: human PBMC supernatant after 24 hours

790615 (CCAATGAGAATGCTTC; 3-10-3 cEt gapmer, further chemistry not given here) [compound 790615]
Oligonucleotide concentration, Colon [1]: 13 μg/g tissue
Oligonucleotide concentration, Liver [1]: 75 μg/g tissue
ALT [2]: 41 IU/L
AST [2]: 77 IU/L
Albumin [2]: 3.3 g/dL
BUN [2]: 22 mg/dL
Bilirubin [2]: 0.3 mg/dL
Basophils [3]: 0.01 10^3/μL
Eosinophils [3]: 0.11 10^3/μL
Hematocrit [3]: 52.2%
Hemoglobin [3]: 15.2 g/dL
Lymphocytes [3]: 78.3%
MCH [3]: 15.0 pg
MCHC [3]: 29.1 g/dL
MCV [3]: 51.6 fL
Monocytes [3]: 0.15 10^3/μL
Neutrophils [3]: 16.0%
RBC [3]: 10.1
Reticulocytes [3]: 2.8%
WBC [3]: 5.4 10^3/μL
platelets [3]: 1033 10^3/μL
Basophils [4]: 0.5%
Eosinophils [4]: 2.6%
Hematocrit [4]: 45%
Hemoglobin [4]: 14.5 g/dL
Lymphocytes [4]: 36%
MCH [4]: 21.9 pg
MCHC [4]: 32.5 g/dL
MCV [4]: 68 fL
Monocytes [4]: 7.9%
Neutrophils [4]: 53%
PLT [4]: 242 ^3/μL
RBC [4]: 6.6 ^6/L
Reticulocytes [4]: 0.7%
WBC [4]: 7.1 ^3/μL
Full length oligonucleotide, Distal colon [5]: 17 µg/g
Full length oligonucleotide, Duodenum [5]: 17 µg/g
Full length oligonucleotide, Ileum [5]: 18 µg/g
Full length oligonucleotide, Kidney [5]: 1156 µg/g
Full length oligonucleotide, Liver [5]: 220 µg/g
Full length oligonucleotide, Proximal colon [5]: 17 µg/g
% inhibition of SMAD7 mRNA expression (compared to control), Distal colon [6]: 31%
% inhibition of SMAD7 mRNA expression (compared to control), Duodenum [6]: 35%
% inhibition of SMAD7 mRNA expression (compared to control), Ileum [6]: 0%
% inhibition of Smad7 mRNA expression (compared to control), Kidney [6]: 37%
% inhibition of Smad7 mRNA expression (compared to control), Liver [6]: 9%
% inhibition of SMAD7 mRNA expression (compared to control), Proximal colon [6]: 41%
Levels of IL-6 ([7]; 0.0128 μM oligonucleotide): 3.7 pg/mL
Levels of IL-10 ([7]; 0.0128 μM oligonucleotide): 1.1 pg/mL
Levels of MCP-1 ([7]; 0.0128 μM oligonucleotide): 329.5 pg/mL
Levels of TNF-α ([7]; 0.0128 μM oligonucleotide): 3.1 pg/mL
Levels of IL-6 ([7]; 0.064 μM oligonucleotide): 3.8 pg/mL
Levels of IL-10 ([7]; 0.064 μM oligonucleotide): 1.6 pg/mL
Levels of MCP-1 ([7]; 0.064 μM oligonucleotide): 281.8 pg/mL
Levels of TNF-α ([7]; 0.064 μM oligonucleotide): 2.5 pg/mL
Levels of IL-6 ([7]; 0.32 μM oligonucleotide): 6.5 pg/mL
Levels of IL-10 ([7]; 0.32 μM oligonucleotide): 2.4 pg/mL
Levels of MCP-1 ([7]; 0.32 μM oligonucleotide): 424.3 pg/mL
Levels of TNF-α ([7]; 0.32 μM oligonucleotide): 3.4 pg/mL
Levels of IL-6 ([7]; 1.6 μM oligonucleotide): 9.0 pg/mL
Levels of IL-10 ([7]; 1.6 μM oligonucleotide): 3.1 pg/mL
Levels of MCP-1 ([7]; 1.6 μM oligonucleotide): 495.8 pg/mL
Levels of TNF-α ([7]; 1.6 μM oligonucleotide): 4.2 pg/mL
Levels of IL-6 ([7]; 8 μM oligonucleotide): 10.0 pg/mL
Levels of IL-10 ([7]; 8 μM oligonucleotide): 1.9 pg/mL
Levels of MCP-1 ([7]; 8 μM oligonucleotide): 449.0 pg/mL
Levels of TNF-α ([7]; 8 μM oligonucleotide): 4.8 pg/mL
Levels of IL-6 ([7]; 40 μM oligonucleotide): 11.0 pg/mL
Levels of IL-10 ([7]; 40 μM oligonucleotide): 0.8 pg/mL
Levels of MCP-1 ([7]; 40 μM oligonucleotide): 301.9 pg/mL
Levels of TNF-α ([7]; 40 μM oligonucleotide): 4.8 pg/mL
Levels of IL-6 ([7]; 200 μM oligonucleotide): 22.9 pg/mL
Levels of IL-10 ([7]; 200 μM oligonucleotide): 0.7 pg/mL
Levels of MCP-1 ([7]; 200 μM oligonucleotide): 81.6 pg/mL
Levels of TNF-α ([7]; 200 μM oligonucleotide): 4.8 pg/mL

798781 (CGTAAGATTCACAGCA; 3-10-3 cEt gapmer, further chemistry not given here) [compound 798781]
Oligonucleotide concentration, Colon [1]: 63 μg/g tissue
Oligonucleotide concentration, Liver [1]: 312 μg/g tissue
ALT [2]: 43 IU/L
AST [2]: 73 IU/L
Albumin [2]: 3.2 g/dL
BUN [2]: 25 mg/dL
Bilirubin [2]: 0.3 mg/dL
Basophils [3]: 0.02 10^3/μL
Eosinophils [3]: 0.26 10^3/μL
Hematocrit [3]: 52.0%
Hemoglobin [3]: 15.2 g/dL
Lymphocytes [3]: 74.0%
MCH [3]: 15.1 pg
MCHC [3]: 29.1 g/dL
MCV [3]: 51.7 fL
Monocytes [3]: 0.18 10^3/μL
Neutrophils [3]: 18.0%
RBC [3]: 10.1
Reticulocytes [3]: 3.0%
WBC [3]: 5.7 10^3/μL
platelets [3]: 1099 10^3/μL
Basophils [4]: 0.5%
Eosinophils [4]: 2.7%
Hematocrit [4]: 48%
Hemoglobin [4]: 16.2 g/dL
Lymphocytes [4]: 34%
MCH [4]: 22.3 pg
MCHC [4]: 33.6 g/dL
MCV [4]: 67 fL
Monocytes [4]: 6.5%
Neutrophils [4]: 56%
PLT [4]: 191 ^3/μL
RBC [4]: 7.3 ^6/L
Reticulocytes [4]: 0.6%
WBC [4]: 7.3 ^3/μL
Full length oligonucleotide, Distal colon [5]: 68 µg/g
Full length oligonucleotide, Duodenum [5]: 97 µg/g
Full length oligonucleotide, Ileum [5]: 177 µg/g
Full length oligonucleotide, Kidney [5]: 3300 µg/g
Full length oligonucleotide, Liver [5]: 964 µg/g
Full length oligonucleotide, Proximal colon [5]: 73 µg/g
% inhibition of SMAD7 mRNA expression (compared to control), Distal colon [6]: 34%
% inhibition of SMAD7 mRNA expression (compared to control), Duodenum [6]: 0%
% inhibition of SMAD7 mRNA expression (compared to control), Ileum [6]: 0%
% inhibition of Smad7 mRNA expression (compared to control), Kidney [6]: 28%
% inhibition of Smad7 mRNA expression (compared to control), Liver [6]: 0%
% inhibition of SMAD7 mRNA expression (compared to control), Proximal colon [6]: 26%
Levels of IL-6 ([7]; 0.0128 μM oligonucleotide): 3.4 pg/mL
Levels of IL-10 ([7]; 0.0128 μM oligonucleotide): 2.2 pg/mL
Levels of MCP-1 ([7]; 0.0128 μM oligonucleotide): 332.9 pg/mL
Levels of TNF-α ([7]; 0.0128 μM oligonucleotide): 2.6 pg/mL
Levels of IL-6 ([7]; 0.064 μM oligonucleotide): 4.9 pg/mL
Levels of IL-10 ([7]; 0.064 μM oligonucleotide): 2.0 pg/mL
Levels of MCP-1 ([7]; 0.064 μM oligonucleotide): 387.0 pg/mL
Levels of TNF-α ([7]; 0.064 μM oligonucleotide): 3.3 pg/mL
Levels of IL-6 ([7]; 0.32 μM oligonucleotide): 6.9 pg/mL
Levels of IL-10 ([7]; 0.32 μM oligonucleotide): 2.3 pg/mL
Levels of MCP-1 ([7]; 0.32 μM oligonucleotide): 483.1 pg/mL
Levels of TNF-α ([7]; 0.32 μM oligonucleotide): 3.8 pg/mL
Levels of IL-6 ([7]; 1.6 μM oligonucleotide): 12.3 pg/mL
Levels of IL-10 ([7]; 1.6 μM oligonucleotide): 3.9 pg/mL
Levels of MCP-1 ([7]; 1.6 μM oligonucleotide): 597.2 pg/mL
Levels of TNF-α ([7]; 1.6 μM oligonucleotide): 5.1 pg/mL
Levels of IL-6 ([7]; 8 μM oligonucleotide): 18.1 pg/mL
Levels of IL-10 ([7]; 8 μM oligonucleotide): 2.9 pg/mL
Levels of MCP-1 ([7]; 8 μM oligonucleotide): 582.7 pg/mL
Levels of TNF-α ([7]; 8 μM oligonucleotide): 6.5 pg/mL
Levels of IL-6 ([7]; 40 μM oligonucleotide): 20.7 pg/mL
Levels of IL-10 ([7]; 40 μM oligonucleotide): 1.4 pg/mL
Levels of MCP-1 ([7]; 40 μM oligonucleotide): 565.8 pg/mL
Levels of TNF-α ([7]; 40 μM oligonucleotide): 6.3 pg/mL
Levels of IL-6 ([7]; 200 μM oligonucleotide): 28.0 pg/mL
Levels of IL-10 ([7]; 200 μM oligonucleotide): 0.6 pg/mL
Levels of MCP-1 ([7]; 200 μM oligonucleotide): 61.3 pg/mL
Levels of TNF-α ([7]; 200 μM oligonucleotide): 4.0 pg/mL
